Reference: patent US20050164323A1, “Methods of treating asthma” (Wyeth, priority 2003, published 2005)
“Also recorded” adds a separate entry of the source. Non-standard residues stand in square brackets, D forms with d. Residues, ends and D or L forms follow the SMILES beside them. pS = N[C@@H](COP(=O)(O)O)C(=O)O

What was measured:
Format in all cases: biochemical
[1] = target: T1, PKC-θ KD (Homo sapiens, UniProt Q04759); assay: HPLC assay: thio effect with ATPγS and product inhibition with ADP; conditions: for pattern / Ki: product inhibition; for appKm / rate: peptide1 used in assay
T1 construct: PKC-θ KD (amino acid residues 362 to 706) was cloned into a pET16b expression vector; hexa-histidine (C); Met-Gly (non-native N-terminal residues) (N); made in house; host or cells: E. coli BL21-DE3 (pET16b)

[2] = target: T1, PKC-θ KD; assay: coupled PK/LDH assay: steady-state kinetics, product and dead-end inhibition of PKC-θ KD; conditions: for substrate inhibition: high peptide concentrations
[3] = target: T1, PKC-θ KD; assay: solvent viscosity studies (sucrose, Ficoll 400) on steady state kinetic parameters; conditions: from viscosity analysis
Method: Next, solvent viscosity studies were performed. Steady state kinetic parameters were determined in the buffer described above for the enzyme kinetics assays containing varied sucrose (0-35%) or Ficoll 400 (0-8%). Relative solvent viscosities (η^ref) were determined in triplicate relative to 25 mM HEPES pH 7.5, 10 mM MgCl2, 2 mM DTT and 100 mM NaCl at 25° C. using an Ostwald viscometer. Buffer with no viscogen is indicated with a superscript of 0. The coupling enzyme system was unaffected by the presence of these viscogens. Thio effect studies with ATPγS and product inhibition studies with ADP were analyzed on a Hewlett Packard series 1100 HPLC using a Phenomenex Auga […] C18 124 A^0 50 mm×4.60 […] column (00B-4299-E0). Phosphorylated peptide was separated from non-phosphorylated peptide using a gradient of 0% to 100% 20 mM phosphate pH 8.8/acetonitrile (50/50). The fluorescein-labeled peptide was detected by excitation at 485 nm and monitoring the fluorescence emission at 530 nm.
To determine if the chemical step is the lone contributor to the rate of the reaction, the effect of solvent viscosity on the steady state kinetic parameters for PKC-θ was determined. Two types of viscogens were employed in this study, the microviscogen sucrose and the macroviscogen Ficoll-400. […]

[4] = dead-end inhibition against peptide 1 at saturating ATP (AMP-PNP up to 2.0 mM)
[5] = dead-end inhibition, varied substrate ATP, 100 mM NaCl
[6] = varied substrate peptide3, saturating ATP, 100 mM NaCl, read-out: Kis
[7] = substrate inhibition, fit to equation (2), saturating ATP, read-out: Ki peptide
[8] = varied peptide substrate, saturating ATP

T1 sequence (Q04759 with tags, fused parts or gaps): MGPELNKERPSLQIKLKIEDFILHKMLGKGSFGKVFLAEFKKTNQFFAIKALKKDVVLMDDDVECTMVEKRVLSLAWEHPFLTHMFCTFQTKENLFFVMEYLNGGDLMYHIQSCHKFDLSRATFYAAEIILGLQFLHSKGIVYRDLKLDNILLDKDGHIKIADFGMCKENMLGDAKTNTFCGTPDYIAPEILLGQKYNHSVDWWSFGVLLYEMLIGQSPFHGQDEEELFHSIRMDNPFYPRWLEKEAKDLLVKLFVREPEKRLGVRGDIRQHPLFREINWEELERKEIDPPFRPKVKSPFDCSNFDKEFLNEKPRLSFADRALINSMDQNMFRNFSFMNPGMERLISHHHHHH

With `Nc1ncnc2c1ncn2[C@@H]1O[C@H](COP(=O)(O)OP(=O)(O)O)[C@@H](O)[C@H]1O` [ADP] the “inhibition pattern in words” value ([1]; against ATP at saturating peptide 1) was “competitive inhibitor; also recorded: competitive pattern”, the “inhibition pattern in words” value ([1]; against peptide 1 at non-saturating ATP (0.1 mM)) was “non-competitive pattern” and the “inhibition pattern in words” value ([1]; against peptide 1 at saturating ATP) was “no inhibition observed”. For the same compound, the pattern ([1]; varied substrate ATP, saturating peptide 1, 100 mM NaCl) was “c (c, competitive)”, the Ki ([1]; varied substrate ATP, saturating peptide 1, 100 mM NaCl, read-out: Kis) was 291 µM and the pattern ([1]; varied substrate peptide1, ATP held at 0.1 mM, 100 mM NaCl) was “nc (nc, noncompetitive)”. For the same compound, the Ki ([1]; varied substrate peptide1, ATP held at 0.1 mM, 100 mM NaCl, read-out: Kii) was 200 µM and the Ki ([1]; varied substrate peptide1, ATP held at 0.1 mM, 100 mM NaCl, read-out: Kis) was 494 µM.

`Nc1ncnc2c1ncn2[C@@H]1O[C@H](COP(=O)(O)OP(=O)(O)NP(=O)(O)O)[C@@H](O)[C@H]1O` [AMP-PNP] was tested, and the “inhibition pattern in words” value ([2]; dead-end inhibition against ATP) was “competitive inhibitor”, the “inhibition pattern in words” value [2, 4] was “no observed inhibition” and the pattern [2, 5] was “c (c, competitive)”. For the same compound, the Ki ([2]; dead-end inhibition, varied substrate ATP, 100 mM NaCl, read-out: Kis) was 228 µM.

For `CC(C)C[C@H](NC(=O)[C@H](COP(=O)(O)O)NC(=O)CNC(=O)[C@H](CCCCN)NC(=O)[C@H](CCCNC(=N)N)NC(=O)[C@H](C)NC(=O)[C@@H](N)Cc1ccccc1)C(=O)N[C@@H](CCCNC(=N)N)C(=O)N[C@@H](CCC(N)=O)C(=O)O` [phosphopeptide1] (H-FARKG[pS]LRQ-OH), the Ki ([2]; varied substrate ATP, peptide3 held at 0.5 mM, 100 mM NaCl, read-out: Kii) was 1600 µM, the Ki ([2]; varied substrate peptide3, ATP held at 0.1 mM, 100 mM NaCl, read-out: Kii) was 2000 µM and the Ki ([2]; varied substrate peptide3, saturating ATP, 100 mM NaCl, read-out: Kii) was 1200 µM. The Ki [2, 6] was 1700 µM.

In the case of `CC(C)C[C@H](NC(=O)[C@H](CO)NC(=O)CNC(=O)[C@H](CCCCN)NC(=O)[C@H](CCCNC(=N)N)NC(=O)[C@H](C)NC(=O)[C@H](Cc1ccccc1)NC(=O)[C@@H](N)CCCNC(=N)N)C(=O)N[C@@H](CCCNC(=N)N)C(=O)N[C@@H](CCC(N)=O)C(=O)N[C@@H](CCCCN)C(=O)N[C@@H](CC(N)=O)C(=O)N[C@H](C(=O)O)C(C)C` [peptide2] (H-RFARKGSLRQKNV-OH; N-terminus and C-terminus assumed), the substrate inhibition [2] is reported as “observed”, the Ki [2, 7] is reported as 306 ± 57 µM and the appKm [2, 8] is reported as 4.3 ± 0.8 µM. It also gave an appKm ([2]; varied peptide substrate, saturating ATP, listed as peptide 2) of 4.3 µM.

Work on `CC(C)C[C@H](NC(=O)[C@H](CO)NC(=O)CNC(=O)[C@H](CCCCN)NC(=O)[C@H](CCCNC(=N)N)NC(=O)[C@H](C)NC(=O)[C@@H](N)Cc1ccccc1)C(=O)N[C@@H](CCCNC(=N)N)C(=O)N[C@@H](CCC(N)=O)C(=O)O` [peptide1] (H-FARKGSLRQ-OH) yielded a Ki ([2]; 0 mM NaCl, read-out: substrate inhibition) of 129 µM, a Ki ([2]; 50 mM NaCl, substrate inhibition, read-out: Ki peptide1) of 201 ± 85 µM and a Ki ([2]; 100 mM NaCl, substrate inhibition, read-out: Ki peptide1) greater than 2000 µM. It also gave a Ki [2, 7] greater than 2000 µM.

For `CC(C)C[C@H](NC(=O)[C@H](C)NC(=O)CNC(=O)[C@H](CCCCN)NC(=O)[C@H](CCCNC(=N)N)NC(=O)[C@H](C)NC(=O)[C@@H](N)Cc1ccccc1)C(=O)N[C@@H](CCCNC(=N)N)C(=O)N[C@@H](CCC(N)=O)C(=O)O` [peptide5] (H-FARKGALRQ-OH; N-terminus and C-terminus assumed), the “inhibition pattern in words” value ([2]; against peptide 3 at saturating ATP) was “competitive inhibitor”, the “inhibition pattern in words” value ([2]; dead-end inhibition against ATP, listed as Peptide 5) was “uncompetitive inhibitor” and the “inhibition pattern in words” value ([2]; dead-end inhibition against ATP, listed as peptide 5) was “un-competitive”. The “inhibition pattern in words” value [2, 4] was “competitive inhibitor”, the pattern [2, 5] was “uc (uc, uncompetitive)” and the Ki ([2]; dead-end inhibition, varied substrate ATP, 100 mM NaCl, read-out: Kii) was 1100 µM. The pattern ([2]; dead-end inhibition, varied substrate peptide1, saturating ATP, 100 mM NaCl) was “c (c, competitive)”, the Ki ([2]; dead-end inhibition, varied substrate peptide1, saturating ATP, 100 mM NaCl, read-out: Kis) was 10 µM and the pattern ([2]; varied substrate peptide3, saturating ATP, 100 mM NaCl) was “c (c, competitive)”. For the same compound, the Ki [2, 6] was 4.4 µM.

“LKRSLSEM [peptide3, substrate derived from the phosphorylation site in serum response factor]” was tested, and the stickiness of substrate [3] was “not sticky”, the substrate inhibition [2] was “not observed” and the appKm [2, 8] was 420 ± 21 µM. For the same compound, the kcat [2, 8] was 21 ± 1 s⁻¹ and the appKm ([2]; varied peptide substrate, saturating ATP, listed as Peptide 3) was 420 µM.

With `Nc1ncnc2c1ncn2[C@@H]1O[C@H](COP(=O)(O)OP(=O)(O)OP(O)(O)=S)[C@@H](O)[C@H]1O` [ATPγS] the “ratio ATP/ATPγS of appKm” value ([1]; 100 mM NaCl) was 2.1, the “ratio ATP/ATPγS of rate (thio effect)” value ([1]; 100 mM NaCl) was 112 and the appKm ([1]; 100 mM NaCl) was 120 ± 9 µM. The rate ([1]; 100 mM NaCl) was 1.6 ± 0.1 peak area/(reaction time in minutes)([enzyme] nM), the “ratio ATP/ATPγS of appKm” value ([1]; 250 mM NaCl) was 1.8 and the “ratio ATP/ATPγS of rate (thio effect)” value ([1]; 250 mM NaCl) was 146. The appKm ([1]; 250 mM NaCl) was 130 ± 5 µM and the rate ([1]; 250 mM NaCl) was 1.3 ± 0.1 peak area/(reaction time in minutes)([enzyme] nM).

For `Nc1ncnc2c1ncn2[C@@H]1O[C@H](COP(=O)(O)OP(=O)(O)OP(=O)(O)O)[C@@H](O)[C@H]1O` [ATP, adenosine triphosphate], the “appKm ATP” value ([2]; 0 mM NaCl, 0.2 mM peptide1) was 25 ± 5 µM, the kcat ([2]; 100 mM NaCl, fit to equation (1)) was 22 ± 1 s⁻¹ and the kcat ([2]; 250 mM NaCl, fit to equation (1)) was 24 ± 1 s⁻¹. The “ATP hydrolysis slower in absence of peptide substrate than when peptide is present” value ([2]; no peptide vs peptide present) was 110 times and the kcat ([2]; varied ATP, peptide1 present) was 18 s⁻¹.

In the case of “RTPKLARQASIELPSM [peptide4, substrate derived from the phosphorylation site in lymphocyte-specific protein-1]”, the substrate inhibition [2] is reported as “not observed”, the appKm [2, 8] is reported as 240 ± 16 µM and the kcat [2, 8] is reported as 14 ± 1 s⁻¹. The appKm ([2]; varied peptide substrate, saturating ATP, listed as peptide 4) was 240 µM.
